Assay results as given in ChEMBL document CHEMBL1949621, “Fluorocyclines. 1. 7-fluoro-9-pyrrolidinoacetamido-6-demethyl-6-deoxytetracycline: a potent, broad spectrum antibacterial agent” (J Med Chem, 2012).
≈ marks a conversion by molar mass, not a printed value.

Tests used:
Staphylococcus aureus [1] = test: Antibacterial activity against tetracycline-resistant Staphylococcus aureus 191 infected in iv dosed CD-1 mouse assessed as dose required for 1 log bacterial burden reduction administered 1.5 hr post infection measured after 24 hrs; type: functional
Staphylococcus aureus [2] = test: Antibacterial activity against tetracycline-resistant Staphylococcus aureus 191 infected in iv dosed CD-1 mouse assessed as dose required for 3 log bacterial burden reduction administered 1.5 hr post infection measured after 24 hrs; type: functional
Bacterial 70S ribosome = test: Inhibition of Escherichia coli ribosome-mediated translation after 60 mins by transcription/translation-coupled luciferase reporter gene assay; type: subcellular
Staphylococcus aureus [3] = test: Antibacterial activity against Staphylococcus aureus ATCC 101 29213; type: functional
Staphylococcus aureus [4] = test: Antibacterial activity against tetracycline- and methicillin-resistant Staphylococcus aureus 161; type: functional
Enterococcus faecalis [5] = test: Antibacterial activity against Enterococcus faecalis ATCC 103 29212; type: functional
Enterococcus faecalis [6] = test: Antibacterial activity against tetracycline-resistant Enterococcus faecalis 159; type: functional
Streptococcus pneumoniae [7] = test: microbe, parasite or virus in culture; type: functional; conditions: ATCC 106 49619
Description: Antibacterial activity against Streptococcus pneumoniae ATCC 106 49619

Escherichia coli [8] = test: Antibacterial activity against Escherichia coli ATCC 107 25922; type: functional
Escherichia coli [9] = test: Antibacterial activity against tetracycline-resistant Escherichia coli 155; type: functional
Acinetobacter baumannii [10] = test: Antibacterial activity against Acinetobacter baumannii ATCC 19606 110; type: functional
Pseudomonas aeruginosa = test: Antibacterial activity against Pseudomonas aeruginosa ATCC 111 27853; type: functional
Enterobacter cloacae = test: Antibacterial activity against Enterobacter cloacae ATCC 108 13047; type: functional
Klebsiella pneumoniae [11] = test: Antibacterial activity against Klebsiella pneumoniae ATCC 109 13883; type: functional
Klebsiella pneumoniae [12] = test: Antibacterial activity against tetracycline-resistant Klebsiella pneumoniae 153; type: functional
Rattus norvegicus = test: (§1) Clearance in Sprague-Dawley rat at 1 mg/kg, iv by LC/MS-MS analysis; type: ADME, organism-based; parameters: dose 1 mg/kg, route intravenous; conditions: in vivo
[13] = AUClast in Sprague-Dawley rat at 1 mg/kg, iv by LC/MS-MS analysis; type: ADME, organism-based; parameters: time 0 - last, dose 1 mg/kg, route intravenous; conditions: plasma
[14] = AUClast in Sprague-Dawley rat at 10 mg/kg, po by LC/MS-MS analysis; type: ADME, organism-based; parameters: dose 10 mg/kg, route oral, time 0 - last; conditions: plasma
[15] = Oral bioavailability in Sprague-Dawley rat at 10 mg/kg by LC/MS-MS analysis; type: ADME, organism-based; conditions: in vivo
[16] = Oral bioavailability in human; type: ADME, organism-based; conditions: in vivo
Escherichia coli [17] = test: Ratio of tetracycline IC50 to compound IC50 for Escherichia coli ribosome-mediated translation; type: subcellular
Staphylococcus aureus [18] = test: microbe, parasite or virus in culture; type: functional; conditions: 158
Streptococcus pneumoniae [19] = test: Antibacterial activity against tetracycline-resistant Streptococcus pneumoniae 160; type: functional
Staphylococcus aureus [20] = test: Ratio of tigecycline MIC to compound MIC for Staphylococcus aureus ATCC 101 29213; type: functional
Enterococcus faecalis [21] = test: Ratio of tigecycline MIC to compound MIC for Enterococcus faecalis ATCC 103 29212; type: functional
Escherichia coli [22] = test: Ratio of tigecycline MIC to compound MIC for Escherichia coli ATCC 107 25922; type: functional
Acinetobacter baumannii [23] = test: Ratio of tigecycline MIC to compound MIC for Acinetobacter baumannii ATCC 19606 110; type: functional
Escherichia coli [24] = test: Antibacterial activity against tetracycline-resistant Escherichia coli 133 infected in iv dosed CD-1 mouse assessed as protection from infection administered 1 hr post infection measured after 24 hrs; type: functional; conditions: Escherichia coli, 133, iv; read-out: PD50
Escherichia coli [25] = test: Antibacterial activity against tetracycline-resistant Escherichia coli 133 infected in iv dosed CD-1 mouse assessed as reduction in bacterial burden administered 1 hr post infection measured after 24 hrs; type: functional
Staphylococcus aureus [26] = test: Antibacterial activity against tetracycline-resistant Staphylococcus aureus 191 infected in iv dosed CD-1 mouse assessed as reduction in bacterial burden administered 1.5 hr post infection measured after 24 hrs; type: functional
[27] = as §1; type: ADME, organism-based; parameters: dose 1 mg/kg, route intravenous; conditions: Sprague-Dawley, in vivo
[28] = Apparent volume of distribution in Sprague-Dawley rat at 1 mg/kg, iv by LC/MS-MS analysis; conditions: in vivo
[29] = Elimination half life in Sprague-Dawley rat at 1 mg/kg, iv by LC/MS-MS analysis; type: ADME, organism-based; parameters: dose 1 mg/kg, route intravenous; conditions: in vivo, read-out: beta t1/2 (converted)
[30] = Elimination half life in Sprague-Dawley rat at 10 mg/kg, po by LC/MS-MS analysis; type: ADME, organism-based; parameters: dose 10 mg/kg, route oral; conditions: in vivo, read-out: beta t1/2 (converted)

Row | SMILES | Activity (Staphylococcus aureus [1]) | Activity (Staphylococcus aureus [2]) | IC50 (Bacterial 70S ribosome) | MIC (Staphylococcus aureus [3]) | MIC (Staphylococcus aureus [4]) | MIC (Enterococcus faecalis [5]) | MIC (Enterococcus faecalis [6]) | MIC (Streptococcus pneumoniae [7]) | MIC (Escherichia coli [8]) | MIC (Escherichia coli [9]) | MIC (Acinetobacter baumannii [10]) | MIC (Pseudomonas aeruginosa) | MIC (Enterobacter cloacae) | MIC (Klebsiella pneumoniae [11]) | MIC (Klebsiella pneumoniae [12]) | AUC(0-t) [13] | AUC(0-t) [14] | bioavailability [15] | MIC (Staphylococcus aureus [18]) | MIC (Streptococcus pneumoniae [19]) | other results
1 | CN[C@H](CC(C)C)C(=O)N[C@H]1C(=O)N[C@@H](CC(N)=O)C(=O)N[C@H]2C(=O)N[C@H]3C(=O)N[C@H](C(=O)N[C@H](C(=O)O)c4cc(O)cc(O)c4-c4cc3ccc4O)[C@H](O)c3ccc(c(Cl)c3)Oc3cc2cc(c3O[C@@H]2O[C@H](CO)[C@@H](O)[C@H](O)[C@H]2O[C@H]2C[C@](C)(N)[C@H](O)[C@H](C)O2)Oc2ccc(cc2Cl)[C@H]1O [VANCOMYCIN] | 0.75 mg/kg | 10 mg/kg | – | – | – | – | – | – | – | – | – | – | – | – | – | – | – | – | – | – | –
2 | CN(C)[C@@H]1C(O)=C(C(N)=O)C(=O)[C@@]2(O)C(O)=C3C(=O)c4c(O)cccc4[C@@](C)(O)[C@H]3C[C@@H]12 [TETRACYCLINE] | – | – | 4580 nM | 0.125 µg/mL (≈ 0.281 µM) | 64 µg/mL (≈ 144 µM) | 16 µg/mL (≈ 36 µM) | 64 µg/mL (≈ 144 µM) | 0.25 µg/mL (≈ 0.563 µM) | > 1 µg/mL | > 64 µg/mL | 1 µg/mL (≈ 2.25 µM) | 16 µg/mL (≈ 36 µM) | 1 µg/mL (≈ 2.25 µM) | 2 µg/mL (≈ 4.5 µM) | > 64 µg/mL | 3080 ng·h/mL | 4540 ng·h/mL | 14.9% | – | – | CL (Rattus norvegicus): 9.03 mL/min/kg; bioavailability [16]: 60%
3 | CN(C)[C@@H]1C(O)=C(C(N)=O)C(=O)[C@@]2(O)C(O)=C3C(=O)c4c(O)c(NC(=O)CN5CCCC5)cc(F)c4C[C@H]3C[C@@H]12 [ERAVACYCLINE] | 0.6 mg/kg | 3 mg/kg | 620 nM | 0.0156 µg/mL (≈ 0.0279 µM) | 0.0156 µg/mL (≈ 0.0279 µM) | 0.0156 µg/mL (≈ 0.0279 µM) | 0.0156 µg/mL (≈ 0.0279 µM) | 0.0156 µg/mL (≈ 0.0279 µM) | 0.0156 µg/mL (≈ 0.0279 µM) | 1 µg/mL (≈ 1.79 µM) | 0.0312 µg/mL (≈ 0.0559 µM) | 8 µg/mL (≈ 14.3 µM) | 0.125 µg/mL (≈ 0.224 µM) | 0.125 µg/mL (≈ 0.224 µM) | 0.5 µg/mL (≈ 0.895 µM) | 1770 ng·h/mL | 295 ng·h/mL | 1.7% | 0.0156 µg/mL (≈ 0.0279 µM) | 0.0156 µg/mL (≈ 0.0279 µM) | Ratio IC50 (Escherichia coli [17]): 7; Ratio (Staphylococcus aureus [20]): 4; Ratio (Enterococcus faecalis [21]): 4; Ratio (Escherichia coli [22]): 4; Ratio (Acinetobacter baumannii [23]): 4; ED50 (Escherichia coli [24]): 1.3 mg/kg; MIC (Escherichia coli [25]): 0.125 µg/mL (≈ 0.224 µM); MIC (Staphylococcus aureus [26]): 0.25 µg/mL (≈ 0.448 µM); clearance [27]: 9.4 mL/min/kg; Vd [28]: 3.2 L/kg; half-life [29]: 4 h; half-life [30]: 6.9 h
4 | CN(C)c1cc(NC(=O)CNC(C)(C)C)c(O)c2c1C[C@H]1C[C@H]3[C@H](N(C)C)C(O)=C(C(N)=O)C(=O)[C@@]3(O)C(O)=C1C2=O [TIGECYCLINE] | 3 mg/kg | 17.3 mg/kg | – | 0.0625 µg/mL (≈ 0.107 µM) | 0.125 µg/mL (≈ 0.213 µM) | 0.0625 µg/mL (≈ 0.107 µM) | 0.0625 µg/mL (≈ 0.107 µM) | 0.0156 µg/mL (≈ 0.0266 µM) | 0.125 µg/mL (≈ 0.213 µM) | 1 µg/mL (≈ 1.71 µM) | 0.5 µg/mL (≈ 0.854 µM) | 16 µg/mL (≈ 27.3 µM) | 0.25 µg/mL (≈ 0.427 µM) | 0.25 µg/mL (≈ 0.427 µM) | 1 µg/mL (≈ 1.71 µM) | 1050 ng·h/mL | 107 ng·h/mL | 1% | 0.125 µg/mL (≈ 0.213 µM) | 0.0156 µg/mL (≈ 0.0266 µM) | ED50 (Escherichia coli [24]): 3.5 mg/kg; MIC (Escherichia coli [25]): 0.125 µg/mL (≈ 0.213 µM); MIC (Staphylococcus aureus [26]): 0.25 µg/mL (≈ 0.427 µM); half-life [30]: 3.98 h
